Measurements taken from ChEMBL document CHEMBL3763023, “Amido/ureidosubstituted benzenesulfonamides-isatin conjugates as low nanomolar/subnanomolar inhibitors of the tumor-associated carbonic anhydrase isoform XII” (Eur J Med Chem, 2016).

Columns and labels:
Carbonic anhydrase 9 = Carbonic anhydrase 9 (Homo sapiens, UniProt Q16790); assay: Inhibition of recombinant human carbonic anhydrase 9 incubated for 15 mins prior to testing by stopped flow carbon dioxide hydrase assay
Carbonic anhydrase 2 = Carbonic anhydrase 2 (Homo sapiens, UniProt P00918); assay: Inhibition of recombinant human carbonic anhydrase 2 incubated for 15 mins prior to testing by stopped flow carbon dioxide hydrase assay

SMILES | Ki (Carbonic anhydrase 9) [nM] | Ki (Carbonic anhydrase 2) [nM]
NS(=O)(=O)c1ccc(NC(=O)Nc2ccc(/N=C3\C(=O)Nc4ccc(F)cc43)cc2)cc1 | 235 | –
NS(=O)(=O)c1ccc(NC(=O)c2ccc(/N=C3\C(=O)Nc4ccc(Br)cc43)cc2)cc1 | 208 | –
NS(=O)(=O)c1ccc(NC(=O)c2ccc(/N=C3\C(=O)Nc4ccccc43)cc2)cc1 | 240 | –
NS(=O)(=O)c1ccc(NC(=O)Nc2ccc(/N=C3\C(=O)Nc4ccccc43)cc2)cc1 | 217 | –
NS(=O)(=O)c1ccc(NC(=O)c2ccc(/N=C3\C(=O)Nc4ccc(Cl)cc43)cc2)cc1 | 194 | –
NS(=O)(=O)c1ccc(NC(=O)Nc2ccc(/N=C3\C(=O)Nc4ccc(Br)cc43)cc2)cc1 | 192 | > 10000
NS(=O)(=O)c1ccc(NC(=O)Nc2ccc(/N=C3\C(=O)Nc4ccc(Cl)cc43)cc2)cc1 | 239 | –

Stronger by Ki (Carbonic anhydrase 9), values ahead:

Ki (Carbonic anhydrase 9) [nM] | Ki (Carbonic anhydrase 2) [nM] | SMILES
159 | – | Nc1ccc(C(=O)Nc2ccc(S(N)(=O)=O)cc2)cc1
16.7 | – | Cc1ccc2c(c1)/C(=N/c1ccc(NC(=O)Nc3ccc(S(N)(=O)=O)cc3)cc1)C(=O)N2
14.8 | – | NS(=O)(=O)c1ccc(NC(=O)Nc2ccc(/N=C3\C(=O)Nc4ccc([N+](=O)[O-])cc43)cc2)cc1
5 | – | NS(=O)(=O)c1ccc(/N=C2\C(=O)Nc3ccc([N+](=O)[O-])cc32)cc1
